Assay results reported in patent publication US20260124222A1, “ISOTHIAZOLYLCARBOXAMIDE COMPOUNDS AND THEIR USE IN THERAPY” (HOTSPOT THERAPEUTICS, INC., priority 2022, published 2026).

Biological target: T1, Avi-tagged FL MALT-1 (Homo sapiens, UniProt Q9UDY8)
T1 construct: Avi-tagged FL MALT-1 (Pharmaron, stored at −70° C.); Avi-tag; purchased Pharmaron
T1 sequence (Q9UDY8 1-824): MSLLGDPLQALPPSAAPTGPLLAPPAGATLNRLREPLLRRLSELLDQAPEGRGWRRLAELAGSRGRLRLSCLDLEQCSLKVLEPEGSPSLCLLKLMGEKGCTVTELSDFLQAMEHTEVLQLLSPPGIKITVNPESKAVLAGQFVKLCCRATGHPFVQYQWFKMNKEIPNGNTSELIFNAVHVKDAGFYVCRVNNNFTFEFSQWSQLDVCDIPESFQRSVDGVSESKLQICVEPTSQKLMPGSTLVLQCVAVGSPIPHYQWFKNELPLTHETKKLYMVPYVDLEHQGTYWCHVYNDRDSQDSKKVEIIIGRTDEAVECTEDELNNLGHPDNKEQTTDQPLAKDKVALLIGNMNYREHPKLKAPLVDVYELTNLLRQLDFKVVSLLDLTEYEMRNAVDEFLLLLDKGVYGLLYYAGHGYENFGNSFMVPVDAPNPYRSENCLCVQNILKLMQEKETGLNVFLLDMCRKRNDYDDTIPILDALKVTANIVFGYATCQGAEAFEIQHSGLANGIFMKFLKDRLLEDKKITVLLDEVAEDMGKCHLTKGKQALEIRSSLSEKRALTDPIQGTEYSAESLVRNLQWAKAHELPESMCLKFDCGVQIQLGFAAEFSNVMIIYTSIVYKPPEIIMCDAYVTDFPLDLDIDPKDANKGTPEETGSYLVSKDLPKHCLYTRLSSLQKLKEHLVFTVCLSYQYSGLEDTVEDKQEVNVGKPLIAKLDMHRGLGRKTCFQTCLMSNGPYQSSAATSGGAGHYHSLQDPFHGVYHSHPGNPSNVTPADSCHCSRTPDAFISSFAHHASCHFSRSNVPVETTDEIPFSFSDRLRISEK
Test: MALT-1 Fluorogenic Peptide Cleavage Assay (MALT1 inhibition assay)
Assay type: biochemical
Settings: Ac-LRSR-AMC peptide substrate; 30 min pre-incubation, 90 min reaction at room temperature; fluorescence
In short: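 Full-length Avi-tagged enzyme preincubated 30 min at room temperature with compound (2% DMSO final) in HEPES pH 6.89 buffer with sodium citrate, TCEP, EDTA and CHAPS. Ac-LRSR-AMC substrate added at Km or 10×Km (working stocks 50 or […] μM); fluorescence (ex 342/em 441 nm) after 90 min; IC50 from sigmoidal fit.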

Compound: CC(=O)Nc1cccc(-c2nsc(C(=O)Nc3ccnc(C(F)(F)F)c3)c2C2CC2)c1 [I-141, 4-cyclopropyl-3-(3-acetamidophenyl)-N-[2-(trifluoromethyl)pyridin-4-yl]-1,2-thiazole-5-carboxamide]
- IC50: 400 to 1000 nM

Compound: O=C(Nc1ccnc(C(F)(F)F)c1)c1snc(-c2ccc3scnc3c2)c1C1CC1 [I-142, 3-(1,3-benzothiazol-5-yl)-4-cyclopropyl-N-[2-(trifluoromethyl)pyridin-4-yl]-1,2-thiazole-5-carboxamide]
- IC50: ≤ 400 nM

Compound: Cc1nn(C)cc1-c1nsc(C(=O)Nc2ccnc(C(F)(F)F)c2)c1C1CC1 [I-143, 4-cyclopropyl-3-(1,3-dimethyl-1H-pyrazol-4-yl)-N-(2-(trifluoromethyl)pyridin-4-yl)isothiazole-5-carboxamide]
- IC50: ≤ 400 nM

Compound: O=C(Nc1ccnc(C(F)(F)F)c1)c1snc(-c2cncnc2)c1C1CC1 [I-144, 4-cyclopropyl-3-(pyrimidin-5-yl)-N-[2-(trifluoromethyl)pyridin-4-yl]-1,2-thiazole-5-carboxamide]
- IC50: ≤ 400 nM

Compound: CN(C)c1ccc(-c2nsc(C(=O)Nc3ccnc(C(F)(F)F)c3)c2C2CC2)cc1 [I-145, 4-cyclopropyl-3-[4-(dimethylamino)phenyl]-N-[2-(trifluoromethyl)pyridine-4-yl]-1,2-thiazole-5-carboxamide]
- IC50: > 2500 nM

Compound: O=C(Nc1ccnc(C(F)(F)F)c1)c1snc(-c2cncc(F)c2)c1C1CC1 [I-146, 4-cyclopropyl-3-(5-fluoropyridin-3-yl)-N-[2-(trifluoromethyl)pyridine-4-yl]-1,2-thiazole-5-carboxamide]
- IC50: ≤ 400 nM

Compound: O=C(Nc1ccnc(C(F)(F)F)c1)c1snc(-c2ccccc2F)c1C1CC1 [I-147, 4-cyclopropyl-3-(2-fluorophenyl)-N-[2-(trifluoromethyl)pyridine-4-yl]-1,2-thiazole-5-carboxamide]
- IC50: ≤ 400 nM

Compound: CC(=O)Nc1ccc(-c2nsc(C(=O)Nc3ccnc(C(F)(F)F)c3)c2C2CC2)cc1 [I-148, 3-(4-acetamidophenyl)-4-cyclopropyl-N-(2-(trifluoromethyl)pyridin-4-yl)isothiazole-5-carboxamide]
- IC50: 400 to 1000 nM

Compound: Cn1ccc(-c2nsc(C(=O)Nc3ccnc(C(F)(F)F)c3)c2C2CC2)n1 [I-150, 4-cyclopropyl-3-(1-methyl-1H-pyrazol-3-yl)-N-(2-(trifluoromethyl)pyridin-4-yl)isothiazole-5-carboxamide]
- IC50: 1000 to 2500 nM

Compound: O=C(Nc1ccnc(C(F)(F)F)c1)c1snc(-c2ccn3ncnc3c2)c1C1CC1 [I-151, 3-([1,2,4]triazolo[1,5-a]pyridin-7-yl)-4-cyclopropyl-N-(2-(trifluoromethyl)pyridin-4-yl)isothiazole-5-carboxamide]
- IC50: 400 to 1000 nM

Compound: Cn1ncc2c(-c3nsc(C(=O)Nc4ccnc(C(F)(F)F)c4)c3C3CC3)cccc21 [I-152, 4-cyclopropyl-3-(1-methyl-1H-indazol-4-yl)-N-(2-(trifluoromethyl)pyridin-4-yl)isothiazole-5-carboxamide]
- IC50: ≤ 400 nM

Compound: O=C(Nc1ccnc(C(F)(F)F)c1)c1snc(-c2ccc3ncsc3c2)c1C1CC1 [I-153, 3-(1,3-benzothiazol-6-yl)-4-cyclopropyl-N-[2-(trifluoromethyl)pyridin-4-yl]-1,2-thiazole-5-carboxamide]
- IC50: ≤ 400 nM

Compound: O=C(Nc1ccnc(C(F)(F)F)c1)c1snc(-c2ccc(C(F)F)cc2)c1C1CC1 [I-154, 4-cyclopropyl-3-(4-(difluoromethyl)phenyl)-N-(2-(trifluoromethyl)pyridin-4-yl)isothiazole-5-carboxamide]
- IC50: ≤ 400 nM

Compound: O=C(Nc1ccnc(C(F)(F)F)c1)c1snc(-c2ccncc2F)c1C1CC1 [I-155, 4-cyclopropyl-3-(3-fluoropyridin-4-yl)-N-[2-(trifluoromethyl)pyridin-4-yl]-1,2-thiazole-5-carboxamide]
- IC50: ≤ 400 nM

Compound: COc1cccc(-c2nsc(C(=O)Nc3ccnc(C(F)(F)F)c3)c2C2CC2)c1 [I-156, 4-cyclopropyl-3-(3-methoxyphenyl)-N-(2-(trifluoromethyl)pyridin-4-yl)isothiazole-5-carboxamide]
- IC50: ≤ 400 nM
